From US20260144788A1, “COMPOUND FOR SHP2 PROTEIN DEGRADATION AND MEDICAL USES THEREOF” (UBIX THERAPEUTICS, INC., priority 2022, published 2026)

Target: T1, SHP2 protein (Homo sapiens, UniProt Q06124)
T1 sequence (Q06124 1-593): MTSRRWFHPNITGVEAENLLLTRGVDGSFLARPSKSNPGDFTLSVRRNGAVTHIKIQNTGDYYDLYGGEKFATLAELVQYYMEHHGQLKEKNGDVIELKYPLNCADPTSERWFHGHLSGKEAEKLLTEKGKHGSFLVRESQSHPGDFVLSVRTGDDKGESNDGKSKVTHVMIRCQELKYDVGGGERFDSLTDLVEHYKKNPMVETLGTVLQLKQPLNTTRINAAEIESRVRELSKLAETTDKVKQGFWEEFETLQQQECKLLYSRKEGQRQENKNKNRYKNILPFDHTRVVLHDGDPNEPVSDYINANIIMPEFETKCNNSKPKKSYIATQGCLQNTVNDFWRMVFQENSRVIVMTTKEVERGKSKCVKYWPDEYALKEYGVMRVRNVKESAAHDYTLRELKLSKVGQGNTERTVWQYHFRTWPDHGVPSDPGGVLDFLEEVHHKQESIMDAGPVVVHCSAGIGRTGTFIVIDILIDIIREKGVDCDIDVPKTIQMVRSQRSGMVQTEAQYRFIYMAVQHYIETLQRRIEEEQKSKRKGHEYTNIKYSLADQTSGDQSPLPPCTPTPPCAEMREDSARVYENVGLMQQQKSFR
Assay: Measurement of SHP2 protein degradation in MV-4-11 cells (western blotting)
Type: cell-based
Parameters: endogenous in cells
Details: harvested after 24 hours
Procedure: MV-4-11 cells were treated with the synthesized Example compounds, and the amount of SHP2 protein present in the cells was measured using western blotting detection. The protocol for the experiment conducted using MV-4-11 cells is as follows.
[Culture] MV-4-11 cells were resuspended in IMDM MEDIUM (Hyclone, SH30228.01), 5% FBS (Hyclone, SV30207.02), 1% Penicillin-streptomycin (Welgene, LS 202-02) media and seeded at 1×10^6/mL in 12-well plates (1 mL each).
[Compound treatment]12-well plates were treated as follows. 10 mM stock dissolved in DMSO was serially diluted 1/100 or 1/10 with media, and the compounds were treated to the cells at a final concentration of 0.01, 0.1, 1 μM or 0.001, 0.01, 0.1 μM, and harvested after 24 hours. For the negative control group, DMSO diluted 1/100 or 1/1000 in media was added (3 μL DMSO+297 μL media or 1 μL DMSO+999 μL media).
[Harvest] Each well was pipetted with a 1 mL pipette, collected in a 1.5 mL microtube, and centrifuged (500 g, 5 min, 4° C.). The supernatant was removed, washed with PBS, and centrifuged again (500 g, 5 min, 4° C.). The supernatant was removed and a pellet was prepared.
[Cell lysis and sample preparation] Lysis buffer was prepared as follows. RIPA buffer (Biosesang, RC2038-050-00)+0.5 mM PMSF (SIGMA, P7626)+1× Protease/Phosphatase Inhibitor (Cell signaling, 5872S) were added at 50 μL per tube and incubated on ice for 30 minutes (vortexed at 0 and 30 minutes). After sonication (10 sec pulse, 30 sec rest, 5 cycles, 70% amplification) and centrifugation (15,000 g, 15 min, 4° C.), only the supernatant was transferred to a microtube. RIPA buffer 7.5 μL and sample 2.5 μL were added to a 96-well plate to dilute to 1/4, and then BCA Protein Assay Kit (iNtRON, 21071) A and B were mixed in a 50:1 ratio and 200 μL each was added. After that, the plate was incubated at 37° C. for 30 minutes and left at room temperature for 10 minutes. After shaking for 10 seconds with a SYNERGY H1 microplate reader from BioTek, the absorbance was measured at 562 nm. The protein was quantified using the measured value to prepare a sample, which was then incubated at 70° C. for 10 minutes. The sample buffer used at this time is a mixture of NuPAGE or Bolt 4× sample buffer (Invitrogen) and each 10× sample reducing agent according to the gel to be used, and RIPA buffer was used for protein dilution.
[Western blotting detection] Equal amounts of samples were loaded onto NuPAGE or Bolt Bis-tris 4-12% gradient gels and run (200 V, 35 min). This was transferred to […] NC membranes using Trans-blot Turbo (BIO-RAD) (1.3 A constant, 25 V limit, 15 min), and was blocked at room temperature for 1 hour with Skim milk or Intercept Blocking Buffer (LI-COR, 927-60001):0.1% TBST=1:1. Anti-SHPTP2 Mouse (1:500 in 2% BSA/0.2% TBST, size: 70 kDa, Santacruz sc-7384) was incubated overnight at 4° C., and Anti-GAPDH Rabbit (1:2,000 in 2% BSA/0.2% TBST, size: 37 kDa, CST #2118) was incubated at room temperature for 1.5 hours or 3 hours. After washing three times for 5 minutes each with 0.2% TBST washing buffer, secondary antibodies Anti-Mouse IgG (1:5,000 in 2% BSA/0.2% TBST, CST) and IRDye® 680RD Goat anti-Rabbit IgG Secondary Antibody (1:10,000 in 2% BSA/0.2% TBST, LI-COR 926-68071) were added, and incubated on a rocker at room temperature for 45 minutes. The resultants were washed five times for 5 minutes each with 0.2% TBST washing buffer, and detected using LI-COR's Odyssey. GAPDH was detected with a 700 nm channel, and SHPTP2 was detected using SuperSignal West Pico PLUS Chemiluminescent Substrate.

SMILES | SHP2% degradation (0.01 μM) [%] | SHP2% degradation (0.1 μM) [%]
Cc1ncsc1-c1ccc(CNC(=O)[C@@H]2C[C@@H](O)CN2C(=O)[C@@H](NC(=O)C2(F)CC2)C(C)(C)C)c(O[C@H]2CC[C@H](C(=O)N3CC(Nc4cccc(Sc5cnc(N6CCC(C)(N)CC6)cn5)c4Cl)C3)CC2)c1 [Example 12, (2S,4R)—N-(2-(((1R,4S)-4-(3-((3-((5-(4-amino-4-methylpiperidin-1-yl)pyrazin-2-yl)thio)-2-chlorophenyl)amino)azetidine-1-carbonyl)cyclohexyl)oxy)-4-(4-methylthiazol-5-yl)benzyl)-1-((S)-2-(1-fluorocyclopropane-1-carboxamido)-3,3-dimethylbutanoyl)-4-hydroxypyrrolidine-2-carboxamide] | 83.7 | 98.6
Cc1ncsc1-c1ccc(CNC(=O)[C@@H]2C[C@@H](O)CN2C(=O)[C@@H](NC(=O)C2(F)CC2)C(C)(C)C)c(O[C@H]2CC[C@H](C(=O)N3CC(Nc4cccc(Sc5cnc(N6CCC7(CC6)CO[C@@H](C)[C@H]7N)cn5)c4Cl)C3)CC2)c1 [Example 13, (2S,4R)—N-(2-(((1R,4S)-4-(3-((3-((5-((3S,4S)-4-amino-3-methyl-2-oxa-8-azaspiro[4.5]decan-8-yl)pyrazin-2-yl)thio)-2-chlorophenyl)amino)azetidine-1-carbonyl)cyclohexyl)oxy)-4-(4-methylthiazol-5-yl)benzyl)-1-((S)-2-(1-fluorocyclopropane-1-carboxamido)-3,3-dimethylbutanoyl)-4-hydroxypyrrolidine-2-carboxamide] | 93.8 | 99.5
Cc1ncsc1-c1ccc(CNC(=O)[C@@H]2C[C@@H](O)CN2C(=O)[C@@H](NC(=O)C2(F)CC2)C(C)(C)C)c(O[C@H]2CC[C@H](C(=O)N3CC(Nc4cccc(Sc5cnc(N6CCC7(CC6)Cc6ccccc6[C@H]7N)cn5)c4Cl)C3)CC2)c1 [Example 14, (2S,4R)—N-(2-(((1R,4S)-4-(3-((3-((5-((S)-1-amino-1,3-dihydrospiro[indene-2,4′-piperidin]-1′-yl)pyrazin-2-yl)thio)-2-chlorophenyl)amino)azetidine-1-carbonyl)cyclohexyl)oxy)-4-(4-methylthiazol-5-yl)benzyl)-1-((S)-2-(1-fluorocyclopropane-1-carboxamido)-3,3-dimethylbutanoyl)-4-hydroxypyrrolidine-2-carboxamide] | 1.2 | 85.1
Cc1ncsc1-c1ccc(CNC(=O)[C@@H]2C[C@@H](O)CN2C(=O)[C@@H](NC(=O)C2(F)CC2)C(C)(C)C)c(O[C@H]2CC[C@H](C(=O)N3CC(Nc4cccc(Oc5cnc(N6CCC(C)(CN)CC6)cn5)c4Cl)C3)CC2)c1 [Example 16, (2S,4R)—N-(2-(((1R,4S)-4-(3-((3-((5-(4-(aminomethyl)-4-methylpiperidin-1-yl)pyrazin-2-yl)oxy)-2-chlorophenyl)amino)azetidine-1-carbonyl)cyclohexyl)oxy)-4-(4-methylthiazol-5-yl)benzyl)-1-((S)-2-(1-fluorocyclopropane-1-carboxamido)-3,3-dimethylbutanoyl)-4-hydroxypyrrolidine-2-carboxamide] | −30.1 | 94.3
Cc1ncsc1-c1ccc(CNC(=O)[C@@H]2C[C@@H](O)CN2C(=O)[C@@H](NC(=O)C2(F)CC2)C(C)(C)C)c(O[C@H]2CC[C@H](C(=O)N3CC(CNc4cccc(Sc5cnc(N6CCC(C)(CN)CC6)cn5)c4Cl)C3)CC2)c1 [Example 18, (2S,4R)—N-(2-(((1R,4S)-4-(3-(((3-((5-(4-(aminomethyl)-4-methylpiperidin-1-yl)pyrazin-2-yl)thio)-2-chlorophenyl)amino)methyl)azetidine-1-carbonyl)cyclohexyl)oxy)-4-(4-methylthiazol-5-yl)benzyl)-1-((S)-2-(1-fluorocyclopropane-1-carboxamido)-3,3-dimethylbutanoyl)-4-hydroxypyrrolidine-2-carboxamide] | 63.2 | 98.4

More lines, now with the values ahead:

SHP2% degradation (0.01 μM) [%] | SHP2% degradation (0.1 μM) [%] | SMILES
83 | 97.9 | Cc1ncsc1-c1ccc(CNC(=O)[C@@H]2C[C@@H](O)CN2C(=O)[C@@H](NC(=O)C2(F)CC2)C(C)(C)C)c(O[C@H]2CC[C@H](C(=O)N3CC(Nc4cccc(Sc5cnc(N6CCC(C)(CN)CC6)cn5)c4Cl)C3)CC2)c1 [Example 11, (2S,4R)—N-(2-(((1R,4S)-4-(3-((3-((5-(4-(aminomethyl)-4-methylpiperidin-1-yl)pyrazin-2-yl)thio)-2-chlorophenyl)amino)azetidine-1-carbonyl)cyclohexyl)oxy)-4-(4-methylthiazol-5-yl)benzyl)-1-((S)-2-(1-fluorocyclopropane-1-carboxamido)-3,3-dimethylbutanoyl)-4-hydroxypyrrolidine-2-carboxamide]
64.4 | 96.6 | Cc1ncsc1-c1ccc(CNC(=O)[C@@H]2C[C@@H](O)CN2C(=O)[C@@H](NC(=O)C2(F)CC2)C(C)(C)C)c(O[C@H]2CC[C@H](C(=O)N3CCC(Nc4cccc(Sc5cnc(N6CCC(C)(CN)CC6)cn5)c4Cl)CC3)CC2)c1 [Example 17, (2S,4R)—N-(2-(((1R,4S)-4-(4-((3-((5-(4-(aminomethyl)-4-methylpiperidin-1-yl)pyrazin-2-yl)thio)-2-chlorophenyl)amino)piperidine-1-carbonyl)cyclohexyl)oxy)-4-(4-methylthiazol-5-yl)benzyl)-1-((S)-2-(1-fluorocyclopropane-1-carboxamido)-3,3-dimethylbutanoyl)-4-hydroxypyrrolidine-2-carboxamide]
50.4 | 95.7 | Cc1ncsc1-c1ccc(CNC(=O)[C@@H]2C[C@@H](O)CN2C(=O)[C@@H](NC(=O)C2(F)CC2)C(C)(C)C)c(O[C@H]2CC[C@H](C(=O)N3CCC(CNc4cccc(Sc5cnc(N6CCC(C)(CN)CC6)cn5)c4Cl)CC3)CC2)c1 [Example 19, (2S,4R)—N-(2-(((1R,4S)-4-(4-(((3-((5-(4-(aminomethyl)-4-methylpiperidin-1-yl)pyrazin-2-yl)thio)-2-chlorophenyl)amino)methyl)piperidine-1-carbonyl)cyclohexyl)oxy)-4-(4-methylthiazol-5-yl)benzyl)-1-((S)-2-(1-fluorocyclopropane-1-carboxamido)-3,3-dimethylbutanoyl)-4-hydroxypyrrolidine-2-carboxamide]
